# Measured values taken from patent US9522882B2, “Strigolactam derivatives as plant growth regulating compounds” (Syngenta Participations AG, priority 2011, dated 2016).
# Experiments:
# [1] = system: Orobanche cumana Wallr. seeds; test: Orobanche cumana seed germination test on glass fiber filter paper in petri dishes; format: in vivo; settings: mean, n = 5 × 100 seeds; for Germination %* at concentration of 0.001 mg I^−1 / Germination %* at concentration of 0.01 mg I^−1 / Germination %* at concentration of 0.1 mg I^−1: preconditioned Orobanche cumana seeds of lot IN153, race F
# Experimental: The effect of compounds of Formula (I) on germination of Orobanche cumana Wallr. seeds was evaluated on glass fiber filter paper (GFFP) in petri dishes. Seeds were preconditioned at moisture and suitable temperature to become responsive to the specific chemical germination stimulants.
# Test compounds were dissolved in DMSO (10 000 mg l^−1) and stored at room temperature in a desiccators with desiccants. The stock solutions were dissolved with deionised water to the appropriate final test concentration.
# Seeds of O. cumana race ‘F’ were collected from sunflower fields in Manzanilla (Seville, Spain) in 2006 (seed lot 1N146) and 2008 (seed lot 1N153) and stored at room temperature. To separate seeds from heavy organic debris, a modified sucrose floatation technique as described by Hartman & Tanimonure (Plant Disease (1991), 75, p. 494) was applied. Seeds were filled into a separation funnel and stirred in water. When seeds floated to the surface, the water fraction containing heavy debris was discarded. Seeds were re-suspended in 2.5M sucrose solution (specific gravity of 1.20) and heavy debris was allowed to settle down for 60 min. After removing debris, seeds were disinfected in 1% sodium hypochlorite solution and 0.025% (v/v) Tween 20 for 2 min. The seeds were decanted onto two layers of cheesecloth, rinsed with sterile deionised water and re-suspended in sterile deionised water. Two ml of the seed suspension containing approximately 150-400 seeds were spread evenly on two layers of sterile glass fiber filter paper disc ([…]) in Petri dishes (Ø9 cm). After wetting the discs with 3 ml sterile deionised water, petri dishes were sealed with parafilm. Seeds were incubated for 10 days at 20° C. in the dark for seed conditioning. The upper disc with conditioned seeds was briefly dried, transferred to a petri dish lined with a dry GFFP disc, and wetted with 6 ml of the appropriate test solution. The compounds of Formula (I) were tested at concentrations of 0.001, 0.01, and 0.1 mg l^−1. The strigolactone analogue GR24 (commercially available as a mixture of isomers) was included as positive control and 0.001% DMSO as negative control. All treatments were tested in five replicates. Seeds were re-incubated at 20° C. in the dark and examined for germination 10 days later. The radicles of germinated seeds were stained for 5 min with blue ink (MIGROS, Switzerland) in 5% acetic acid according to Long et al. (Seed Science Research (2008), 18, p. 125). After staining, seeds were scanned using a flatbed scanner with an optical resolution of 1200 dpi (PULSTEK, OpticPro ST28) or photographed using a camera stand mounted with a digital SLR camera (Canon EOS 5D). Germination of 100 seeds per replicate was evaluated on digital images. Seeds were considered germinated when the radicle protruded from the seed coat.
# [2] = system: Brassica oleracea cv Botrytis; test: Standard paper germination test for Brassica (tropical cauliflower seeds, 20° C. in the dark); format: in vivo; settings: tropical cauliflower 3C150 (seed batch 11B295), 25 μM; for Gmax (total germination): DMSO treatment = 31.3%
# Experimental: The effect of compounds of Formula (I) on the germination of Brassica oleracea cv Botrytis or common cauliflower was tested on tropical types. […] Germination of a sensitive tropical type at 20° is stimulated by the presence of light.
# The tropical seed batch tested was part of seed batches produced as basic seed (for maintenance of the parental line) and were processed accordingly.
# Germination was assessed using the standard paper germination test for Brassica: Fifty seeds were placed on blue germination paper, which was moistened with the appropriate solutions, in closed oblong germination boxes. Each condition was tested in duplo. Germination boxes were placed in controlled germination cabinets with the appropriate temperature and light conditions. Germination of seeds was counted at regular intervals. Seeds were considered to be germinated when the radical had protruded the testa and endosperm (radical size approximately 1 mm). Germination kinetics were analyzed using the Germinator analysis tool in order to obtain the parameters: Gmax (maximum germination) and t50 (time needed to reach 50% of the Gmax). The Germinator analysis tool is an add-in in for excel developed by the University of Wageningen: Joosen, R. V. L., J. Kodde, et al. (2010). (“Germinator: A Software Package for High-Throughput Scoring and Curve Fitting of Arabidopsis Seed Germination.” The Plant Journal 62(1): 148-159.)
# Test compounds were dissolved in DMSO at a concentration of 50 mM and stored at −20° C. The strigolactone analogue GR24 (commercially available as a racemic mixture of 2 diastereoisomers, referred to as “synthetic strigolactone GR-24” and first prepared by Johnson A. W. & all, Journal of the Chemical Society, Perkin Transactions 1, 1981, page 1734-1743) was included as positive control. Germination solutions were prepared by diluting the stock solutions with demineralized water till 25 μM. As control solutions demineralized water and a 0.05% v/v DMSO solution were used.
# [3] = aqueous control (0.001% DMSO) = 0.2% germination
# [4] = Table 3, preconditioned seeds of lot IN146, raceF, aqueous control (0.001% DMSO) = 0% germination
# [5] = Table 5, preconditioned seeds of lot IN153, raceF, aqueous control (0.001% DMSO) = 0.2% germination
# [6] = Table 6, preconditioned seeds of lot IN153, raceF, aqueous control (0.001% DMSO) = 0.8% germination
# [7] = Table 4, preconditioned seeds of lot IN146, raceF, aqueous control (0.001% DMSO) = 0% germination
structure (smiles),measurement,setting,value
CC1=CC(OC=C2C(=O)NC3c4cccc(-c5ccccc5)c4CC23)OC1=O (mixture of isomers) [Compound A9],Germination %* at concentration of 0.001 mg I^−1,[1]; [3],53.4%
same,Germination %* at concentration of 0.01 mg I^−1,[1]; [3],84.4%
same,Germination %* at concentration of 0.1 mg I^−1,[1]; [3],76.8%
CC1=CC(OC=C2C(=O)NC3c4cccc(-c5ccncc5)c4CC23)OC1=O (mixture of isomers) [Compound A10],Germination %* at concentration of 0.001 mg I^−1,[1]; [3],11.2%
same,Germination %* at concentration of 0.01 mg I^−1,[1]; [3],18.0%
same,Germination %* at concentration of 0.1 mg I^−1,[1]; [3],24.0%
CC1=CC(OC=C2C(=O)NC3c4cccc(-c5cccnc5)c4CC23)OC1=O (mixture of isomers) [Compound A11],Germination %* at concentration of 0.001 mg I^−1,[1]; [3],30.0%
same,Germination %* at concentration of 0.01 mg I^−1,[1]; [3],65.6%
same,Germination %* at concentration of 0.1 mg I^−1,[1]; [3],90.8%
CC1=CC(OC=C2C(=O)NC3c4cccc(-c5nccs5)c4CC23)OC1=O (mixture of isomers) [Compound A12],Germination %* at concentration of 0.001 mg I^−1,[1]; [3],13.0%
same,Germination %* at concentration of 0.01 mg I^−1,[1]; [3],7.0%
same,Germination %* at concentration of 0.1 mg I^−1,[1]; [3],26.8%
CC1=CC(OC=C2C(=O)NC3c4cccc(-c5ccco5)c4CC23)OC1=O (mixture of isomers) [Compound A13],Germination %* at concentration of 0.001 mg I^−1,[1]; [3],13.4%
same,Germination %* at concentration of 0.01 mg I^−1,[1]; [3],66.4%
same,Germination %* at concentration of 0.1 mg I^−1,[1]; [3],90.0%
"C=CCc1cccc2c1C[C@@H]1/C(=C\O[C@H]3C=C(C)C(=O)O3)C(=O)N[C@H]21 (relative stereo) [Compound A1, (3aR*,8bS*, 5′R*)-5-allyl-3-[1-(4-Methyl-5-oxo-2,5-dihydro-furan-2-yloxy)-meth-(E)-ylidene]-3,3a,4,8b-tetrahydro-1H-indeno[1,2-b]pyrrol-2-one]",Germination % at concentration of 0.001 mg I^−1,[1]; [4],85.8%
same,Germination % at concentration of 0.01 mg I^−1,[1]; [4],82.0%
same,Germination % at concentration of 0.1 mg I^−1,[1]; [4],82.6%
CC#Cc1cccc2c1C[C@@H]1/C(=C\O[C@H]3C=C(C)C(=O)O3)C(=O)N[C@H]21 (relative stereo) [Compound A4],Germination % at concentration of 0.001 mg I^−1,[1]; [5],97.6%
same,Germination % at concentration of 0.01 mg I^−1,[1]; [5],94.4%
same,Germination % at concentration of 0.1 mg I^−1,[1]; [5],98.2%
COCC#Cc1cccc2c1C[C@@H]1/C(=C\O[C@H]3C=C(C)C(=O)O3)C(=O)N[C@H]21 (relative stereo) [Compound A5],Germination % at concentration of 0.001 mg I^−1,[1]; [5],79.0%
same,Germination % at concentration of 0.01 mg I^−1,[1]; [5],91.4%
same,Germination % at concentration of 0.1 mg I^−1,[1]; [5],99.2%
CC1=C[C@H](O/C=C2/C(=O)N[C@@H]3c4cccc(C#Cc5ccccc5)c4C[C@H]23)OC1=O (relative stereo) [Compound A6],Germination %* at concentration of 0.001 mg I^−1,[1]; [3],2.6%
same,Germination %* at concentration of 0.01 mg I^−1,[1]; [3],40.2%
same,Germination %* at concentration of 0.1 mg I^−1,[1]; [3],83.6%
C=Cc1cccc2c1C[C@@H]1/C(=C\O[C@H]3C=C(C)C(=O)O3)C(=O)N[C@H]21 (relative stereo) [Compound A7],Germination % at concentration of 0.001 mg I^−1,[1]; [6],96.4%
same,Germination % at concentration of 0.01 mg I^−1,[1]; [6],96.8%
same,Germination % at concentration of 0.1 mg I^−1,[1]; [6],95.4%
"COC(=O)c1ccc2c(c1)C1NC(=O)/C(=C/O[C@H]3C=C(C)C(=O)O3)[C@H]1C2 (stereo in doubt) [Compound A3, methyl(3E,3aR,8bR)-3-[[(2R)-4-methyl-5-oxo-2H-furan-2-yl]oxymethylene]-2-oxo-1,3a,4,8b-tetrahydroindeno[1,2-b]pyrrole-7-carboxylate]","stimulation (extra germination compared to the DMSO treatment, expressed as percentage of the DMSO treatment)",[2],36.7%
same,Gmax (total germination),[2],43.0%
same,Germination % at concentration of 0.001 mg I^−1,[1]; [7],85.8%
same,Germination % at concentration of 0.01 mg I^−1,[1]; [7],82.0%
same,Germination % at concentration of 0.1 mg I^−1,[1]; [7],82.6%
"C#Cc1cccc2c1C[C@@H]1/C(=C\O[C@H]3C=C(C)C(=O)O3)C(=O)N[C@H]21 [Compound A2, (3E,3aR,8bS)-5-ethynyl-3-[(4-methyl-5-oxo-2H-furan-2-yl)oxymethylene]-1,3a,4,8b-tetrahydroindeno[1,2-b]pyrrol-2-one]",Germination % at concentration of 0.001 mg I^−1,[1]; [4],85.8%
same,Germination % at concentration of 0.01 mg I^−1,[1]; [4],82.0%
same,Germination % at concentration of 0.1 mg I^−1,[1]; [4],86.2%
"CC1=C[C@H](O/C=C2/C(=O)N[C@@H]3c4c(cccc4C4CC4)C[C@H]23)OC1=O [Compound A8, (3E,3aR,8bS)-8-cyclopropyl-3-[[(2R)-4-methyl-5-oxo-2H-furan-2-yl]oxymethylene]-1,3a,4,8b-tetrahydroindeno[1,2-b]pyrrol-2-one]",Germination %* at concentration of 0.001 mg I^−1,[1]; [3],81.2%
same,Germination %* at concentration of 0.01 mg I^−1,[1]; [3],88.5%
same,Germination %* at concentration of 0.1 mg I^−1,[1]; [3],86.8%
"CC1=C[C@H](O/C=C2/C(=O)O[C@@H]3c4ccccc4C[C@H]23)OC1=O [GR24, reference compound]","stimulation (extra germination compared to the DMSO treatment, expressed as percentage of the DMSO treatment)",[2],140.0%
same,Gmax (total germination),[2],73.0%
same,Germination % at concentration of 0.001 mg I^−1,[1]; [5],88.6%
same,Germination % at concentration of 0.01 mg I^−1,[1]; [5],96.0%
same,Germination % at concentration of 0.1 mg I^−1,[1]; [5],93.8%
same,Germination % at concentration of 0.001 mg I^−1,[1]; [6],79.8%
same,Germination % at concentration of 0.01 mg I^−1,[1]; [6],93.2%
same,Germination % at concentration of 0.1 mg I^−1,[1]; [6],96.8%
same,Germination %* at concentration of 0.001 mg I^−1,[1]; [3],60.8%
same,Germination %* at concentration of 0.01 mg I^−1,[1]; [3],83.2%
same,Germination %* at concentration of 0.1 mg I^−1,[1]; [3],90.6%
